Reference: ChEMBL document CHEMBL2396528, “Synthesis of new conjugated coumarin-benzimidazole hybrids and their anticancer activity” (2013)

Legend:
Assay type in all cases: functional
[1] = tested on: PC-3; test: Cytotoxicity against human PC3 cells assessed as growth inhibition at 10 uM after 48 hrs by SRB assay relative to control; conditions: PC-3, 48 h, read-out: GI
[2] = tested on: SK-MEL-28; test: Cytotoxicity against human SK-MEL-28 cells assessed as growth inhibition at 10 uM after 48 hrs by SRB assay relative to control; conditions: SK-MEL-28, 48 h, read-out: GI
[3] = tested on: SF-539; test: Cytotoxicity against human SF539 cells assessed as growth inhibition at 10 uM after 48 hrs by SRB assay relative to control; conditions: SF-539, 48 h, read-out: GI
[4] = tested on: OVCAR-8; test: Cytotoxicity against human OVCAR8 cells assessed as growth inhibition at 10 uM after 48 hrs by SRB assay relative to control; conditions: OVCAR-8, 48 h, read-out: GI
[5] = tested on: MOLT-4; test: Cytotoxicity against human MOLT4 cells assessed as growth inhibition at 10 uM after 48 hrs by SRB assay relative to control; conditions: MOLT-4, 48 h, read-out: GI
[6] = tested on: SR; test: Cytotoxicity against human SR cells assessed as growth inhibition at 10 uM after 48 hrs by SRB assay relative to control; conditions: read-out: GI
[7] = tested on: HCT-15; test: Cytotoxicity against human HCT15 cells assessed as growth inhibition at 10 uM after 48 hrs by SRB assay relative to control; conditions: HCT-15, 48 h, read-out: GI
[8] = tested on: SF-268; test: Cytotoxicity against human SF268 cells assessed as growth inhibition at 10 uM after 48 hrs by SRB assay relative to control; conditions: SF-268, 48 h, read-out: GI
[9] = tested on: OVCAR-3; test: Cytotoxicity against human OVCAR3 cells assessed as growth inhibition at 10 uM after 48 hrs by SRB assay relative to control; conditions: OVCAR-3, 48 h, read-out: GI
[10] = tested on: HCT-116; test: Cytotoxicity against human HCT116 cells assessed as growth inhibition at 10 uM after 48 hrs by SRB assay relative to control; conditions: HCT-116, 48 h, read-out: GI
[11] = tested on: Malme-3M; test: Cytotoxicity against human MALME-3M cells assessed as growth inhibition at 10 uM after 48 hrs by SRB assay relative to control; conditions: read-out: GI
[12] = tested on: SK-OV-3; test: Cytotoxicity against human SKOV3 cells assessed as growth inhibition at 10 uM after 48 hrs by SRB assay relative to control; conditions: SK-OV-3, 48 h, read-out: GI
[13] = tested on: MCF7; test: Cytotoxicity against human MCF7 cells assessed as growth inhibition at 10 uM after 48 hrs by SRB assay relative to control; conditions: MCF7, 48 h, read-out: GI
[14] = tested on: T47D; test: Cytotoxicity against human T47D cells assessed as growth inhibition at 10 uM after 48 hrs by SRB assay relative to control; conditions: read-out: GI
[15] = tested on: IGROV-1; test: Cytotoxicity against human IGROV1 cells assessed as growth inhibition at 10 uM after 48 hrs by SRB assay relative to control; conditions: IGROV-1, 48 h, read-out: GI
[16] = Cytotoxicity against human NCI-ADR-RES cells assessed as growth inhibition at 10 uM after 48 hrs by SRB assay relative to control; conditions: read-out: GI
[17] = tested on: SNB-75; test: Cytotoxicity against human SNB75 cells assessed as growth inhibition at 10 uM after 48 hrs by SRB assay relative to control; conditions: SNB-75, 48 h, read-out: GI
[18] = tested on: SW-620; test: Cytotoxicity against human SW620 cells assessed as growth inhibition at 10 uM after 48 hrs by SRB assay relative to control; conditions: SW-620, 48 h, read-out: GI
[19] = tested on: HOP-62; test: Cytotoxicity against human HOP62 cells assessed as growth inhibition at 10 uM after 48 hrs by SRB assay relative to control; conditions: HOP-62, 48 h, read-out: GI
[20] = tested on: M14; test: Cytotoxicity against human M14 cells assessed as growth inhibition at 10 uM after 48 hrs by SRB assay relative to control; conditions: M14, 48 h, read-out: GI
[21] = tested on: LOX IMVI; test: Cytotoxicity against human LOXIMVI cells assessed as growth inhibition at 10 uM after 48 hrs by SRB assay relative to control; conditions: read-out: GI
[22] = tested on: SK-MEL-5; test: Cytotoxicity against human SK-MEL-5 cells assessed as growth inhibition at 10 uM after 48 hrs by SRB assay relative to control; conditions: SK-MEL-5, 48 h, read-out: GI
[23] = tested on: CCRF-CEM; test: Cytotoxicity against human CCRF-CEM cells assessed as growth inhibition at 10 uM after 48 hrs by SRB assay relative to control; conditions: read-out: GI
[24] = tested on: MDA-MB-468; test: Cytotoxicity against human MDA-MB-468 cells assessed as growth inhibition at 10 uM after 48 hrs by SRB assay relative to control; conditions: MDA-MB-468, 48 h, read-out: GI
[25] = tested on: A549; test: Cytotoxicity against human A549 cells assessed as growth inhibition at 10 uM after 48 hrs by SRB assay relative to control; conditions: A549, 48 h, read-out: GI
[26] = tested on: Hs-578T; test: Cytotoxicity against human Hs578T cells assessed as growth inhibition at 10 uM after 48 hrs by SRB assay relative to control; conditions: read-out: GI
[27] = tested on: UACC-257; test: Cytotoxicity against human UACC257 cells assessed as growth inhibition at 10 uM after 48 hrs by SRB assay relative to control; conditions: UACC-257, 48 h, read-out: GI
[28] = tested on: SF-295; test: Cytotoxicity against human SF295 cells assessed as growth inhibition at 10 uM after 48 hrs by SRB assay relative to control; conditions: SF-295, 48 h, read-out: GI
[29] = tested on: NCI-H522; test: Cytotoxicity against human NCI-H522 cells assessed as growth inhibition at 10 uM after 48 hrs by SRB assay relative to control; conditions: NCI-H522, 48 h, read-out: GI
[30] = tested on: HOP-92; test: Cytotoxicity against human HOP92 cells assessed as growth inhibition at 10 uM after 48 hrs by SRB assay relative to control; conditions: HOP-92, 48 h, read-out: GI
[31] = tested on: CAKI-1; test: Cytotoxicity against human Caki1 cells assessed as growth inhibition at 10 uM after 48 hrs by SRB assay relative to control; conditions: CAKI-1, 48 h, read-out: GI
[32] = tested on: A498; test: Cytotoxicity against human A498 cells assessed as growth inhibition at 10 uM after 48 hrs by SRB assay relative to control; conditions: A498, 48 h, read-out: GI
[33] = tested on: NCI-H23; test: Cytotoxicity against human NCI-H23 cells assessed as growth inhibition at 10 uM after 48 hrs by SRB assay relative to control; conditions: NCI-H23, 48 h, read-out: GI
[34] = tested on: NCI-H322M; test: Cytotoxicity against human NCI-H322M cells assessed as growth inhibition at 10 uM after 48 hrs by SRB assay relative to control; conditions: read-out: GI
[35] = tested on: SK-MEL-2; test: Cytotoxicity against human SK-MEL-2 cells assessed as growth inhibition at 10 uM after 48 hrs by SRB assay relative to control; conditions: SK-MEL-2, 48 h, read-out: GI

NCCNc1ccc2cc(-c3nc4ccccc4[nH]3)c(=O)oc2c1
inhibition of growth at 10 µM [1]: 20.3% | inhibition of growth at 10 µM [2]: < 20% | inhibition of growth at 10 µM [3]: < 20% | inhibition of growth at 10 µM [4]: < 20% | inhibition of growth at 10 µM [5]: < 20% | inhibition of growth at 10 µM [6]: < 20% | inhibition of growth at 10 µM [7]: 20.6% | inhibition of growth at 10 µM [8]: < 20% | inhibition of growth at 10 µM [9]: < 20% | inhibition of growth at 10 µM [10]: < 20% | inhibition of growth at 10 µM [11]: < 20% | inhibition of growth at 10 µM [12]: < 20% | inhibition of growth at 10 µM [13]: < 20% | inhibition of growth at 10 µM [14]: < 20% | inhibition of growth at 10 µM [15]: < 20% | inhibition of growth at 10 µM [16]: < 20% | inhibition of growth at 10 µM [17]: < 20% | inhibition of growth at 10 µM [18]: < 20% | inhibition of growth at 10 µM [19]: < 20% | inhibition of growth at 10 µM [20]: < 20% | inhibition of growth at 10 µM [21]: < 20% | inhibition of growth at 10 µM [22]: < 20% | inhibition of growth at 10 µM [23]: < 20% | inhibition of growth at 10 µM [24]: < 20% | inhibition of growth at 10 µM [25]: < 20% | inhibition of growth at 10 µM [26]: < 20% | inhibition of growth at 10 µM [27]: < 20% | inhibition of growth at 10 µM [28]: < 20% | inhibition of growth at 10 µM [29]: < 20% | inhibition of growth at 10 µM [30]: < 20% | inhibition of growth at 10 µM [31]: < 20% | inhibition of growth at 10 µM [32]: < 20% | inhibition of growth at 10 µM [33]: < 20% | inhibition of growth at 10 µM [34]: < 20% | inhibition of growth at 10 µM [35]: < 20%

O=c1oc2cc(N3CCOCC3)ccc2cc1-c1nc2ccccc2[nH]1
inhibition of growth at 10 µM [1]: < 20% | inhibition of growth at 10 µM [2]: < 20% | inhibition of growth at 10 µM [3]: < 20% | inhibition of growth at 10 µM [4]: < 20% | inhibition of growth at 10 µM [5]: < 20% | inhibition of growth at 10 µM [6]: < 20% | inhibition of growth at 10 µM [7]: < 20% | inhibition of growth at 10 µM [8]: < 20% | inhibition of growth at 10 µM [9]: < 20% | inhibition of growth at 10 µM [10]: < 20% | inhibition of growth at 10 µM [11]: < 20% | inhibition of growth at 10 µM [12]: < 20% | inhibition of growth at 10 µM [13]: 62.1% | inhibition of growth at 10 µM [14]: < 20% | inhibition of growth at 10 µM [15]: < 20% | inhibition of growth at 10 µM [16]: < 20% | inhibition of growth at 10 µM [17]: < 20% | inhibition of growth at 10 µM [18]: < 20% | inhibition of growth at 10 µM [19]: < 20% | inhibition of growth at 10 µM [20]: < 20% | inhibition of growth at 10 µM [21]: < 20% | inhibition of growth at 10 µM [22]: < 20% | inhibition of growth at 10 µM [23]: < 20% | inhibition of growth at 10 µM [24]: < 20% | inhibition of growth at 10 µM [25]: < 20% | inhibition of growth at 10 µM [26]: < 20% | inhibition of growth at 10 µM [27]: < 20% | inhibition of growth at 10 µM [28]: < 20% | inhibition of growth at 10 µM [29]: < 20% | inhibition of growth at 10 µM [30]: 20.7% | inhibition of growth at 10 µM [31]: < 20% | inhibition of growth at 10 µM [32]: < 20% | inhibition of growth at 10 µM [33]: < 20% | inhibition of growth at 10 µM [34]: < 20% | inhibition of growth at 10 µM [35]: < 20%
